Test results published in paper PMC11403612, “Preparation and Preclinical Characterization of a Simple Ester for Dual Exogenous Supply of Lactate and Beta-hydroxybutyrate” (Journal of Agricultural and Food Chemistry, 2024).

Experiment: Microsomal stability of LaKe, rat
Type: in vitro ADME, SD Rat
Procedure: The in vitro stability of LaKe was evaluated following incubation in simulated gastric fluid (SGF), simulated intestinal fluid (SIF), fresh and frozen plasma (rats and humans, respectively), and the presence of hepatocytes (rats and humans) and liver microsomes (rats and humans). At the chosen time points, the mixtures were analyzed by LC-MS/MS to quantify the remaining LaKe and all assays included at least one control compound with known pharmacokinetic properties.
Hepatocyte stability of LaKe
Cells: Rat hepatocytes (BioreclamationIVT, M0005); Human hepatocytes (BioreclamationIVT, X008001) Thawing Medium: Williams’ Medium E containing 5% fetal bovine serum and 30% Percoll solution and other […]
Incubation Medium: Williams’ Medium E (no phenol red) containing 2 mM L-Glutamine and 25 mM HEPES.
Stop Solution: Acetonitrile containing 200 ng/mL tolbutamide and labetalol as internal standards.
Dilution Solution: Ultra-pure water.
Preparation of Quenching Plate: Transfer 125 μL of stop solution (acetonitrile containing 200 ng/mL tolbutamide and 200 ng/mL labetalol as internal standards) in a set of pre-labeled 96-well plates.
Cryopreserved cells were thawed, isolated and suspended in Incubation Medium, then diluted with pre-warmed Incubation Medium to 0.5 × 10^6 cells/mL. 198 μL of pre-warmed cell suspensions were added in 96-well plates. […]

For `CC(O)CCOC(=O)C(C)O` (centres unmarked) [LaKe, 3-hydroxybutyl 2-hydroxypropanoate], the “turnover in liver microsomes” value (presence of NADPH) was “underwent turnover” and the LaKe remaining (rat liver microsomes, absence of NADPH, after 60 min) was 55%.
